Laboratory results reported in US20040023994A1 (priority 2002, published 2004).
Like-named read-outs stand apart in the source and are kept apart here.

Columns and labels:
[1] = system: U251; settings: U251, CNS, NCI database, cited from earlier work; for CC50: read-out: LC50 (the source's name)
[2] = system: MDA-MB-435; settings: MDA-MB-435, Breast, NCI database, cited from earlier work; for CC50: read-out: LC50 (the source's name)
[3] = system: NCI-H522; settings: NCI-H522, Non-Small Cell Lung, NCI database, cited from earlier work; for CC50: read-out: LC50 (the source's name)
[4] = cited from earlier work
[5] = system: 786-0; settings: 786-0, Renal, NCI database, cited from earlier work; for CC50: read-out: LC50 (the source's name)
[6] = system: SW-620; settings: SW-620, Colon, NCI database, cited from earlier work; for CC50: read-out: LC50 (the source's name)
[7] = system: M14; settings: M14, Melanoma, NCI database, cited from earlier work; for CC50: read-out: LC50 (the source's name)
[8] = system: SK-MEL-28; settings: SK-MEL-28, Melanoma, NCI database, cited from earlier work; for CC50: read-out: LC50 (the source's name)
[9] = system: SK-OV-3; settings: SK-OV-3, Ovarian, NCI database, cited from earlier work; for CC50: read-out: LC50 (the source's name)
[10] = system: COLO 205; settings: COLO 205, Colon, NCI database, cited from earlier work; for CC50: read-out: LC50 (the source's name)
[11] = system: CAKI-1; settings: CAKI-1, Renal, NCI database, cited from earlier work; for CC50: read-out: LC50 (the source's name)
[12] = system: SF-539; settings: for CC50: read-out: LC50
[13] = system: UO-31; settings: for CC50: read-out: LC50
[14] = system: CCRF-CEM
[15] = system: NCI-H23; assay type: cell-based; settings: NCI-H23, Non-Small Cell Lung, 48 h
[16] = system: CAKI-1; settings: for CC50: read-out: LC50
[17] = system: COLO 205; settings: for CC50: read-out: LC50
[18] = system: BT-549; settings: for CC50: read-out: LC50
[19] = system: SK-MEL-5; settings: for CC50: read-out: LC50
[20] = system: KM12; settings: for CC50: read-out: LC50
[21] = system: SNB-75; settings: for CC50: read-out: LC50
[22] = system: SF-295; settings: for CC50: read-out: LC50
[23] = system: HL-60(TB)
[24] = system: M14; settings: for CC50: read-out: LC50

SMILES: Sc1ncnc2nc[nH]c12 [6-MP, 6-mercaptopurine]
- GI50 [1]: 11.8 µM
- TGI [1]: >100 µM
- CC50 [1]: > 100 µM
- GI50 [2]: 1.4 µM
- TGI [2]: >100 µM
- CC50 [2]: > 100 µM
- GI50 [3]: 1.67 µM
- TGI [3]: >100 µM
- CC50 [3]: > 100 µM
- dose absorbed after oral administration [4]: ≤ 37%
- GI50 [5]: 1.87 µM
- TGI [5]: >100 µM
- CC50 [5]: > 100 µM
- GI50 [6]: 6.82 µM
- TGI [6]: >100 µM
- CC50 [6]: > 100 µM
- GI50 [7]: 0.67 µM
- TGI [7]: >100 µM
- CC50 [7]: > 100 µM
- GI50 [8]: > 100 µM
- TGI [8]: >100 µM
- CC50 [8]: > 100 µM
- GI50 [9]: 0.97 µM
- TGI [9]: >100 µM
- CC50 [9]: > 100 µM
- GI50 [10]: 4.68 µM
- TGI [10]: >100 µM
- CC50 [10]: > 100 µM
- GI50 [11]: 2.36 µM
- TGI [11]: >100 µM
- CC50 [11]: > 100 µM

SMILES: Nc1nc2nc[nH]c2c(=S)[nH]1 [6-TG, 6-thioguanine]
- GI50 [1]: 4.89 µM
- TGI [1]: >100 µM
- CC50 [1]: > 100 µM
- GI50 [2]: 0.84 µM
- TGI [2]: 31.9 µM
- CC50 [2]: > 100 µM
- GI50 [3]: 0.91 µM
- TGI [3]: 6.28 µM
- CC50 [3]: > 100 µM
- dose absorbed after oral administration [4]: up to 46%
- GI50 [5]: 0.82 µM
- TGI [5]: >100 µM
- CC50 [5]: > 100 µM
- GI50 [6]: 1.52 µM
- TGI [6]: >100 µM
- CC50 [6]: > 100 µM
- GI50 [7]: 0.58 µM
- TGI [7]: 14.3 µM
- CC50 [7]: > 100 µM
- GI50 [8]: 8.91 µM
- TGI [8]: >100 µM
- CC50 [8]: > 100 µM
- GI50 [9]: 0.54 µM
- TGI [9]: 16.4 µM
- CC50 [9]: > 100 µM
- GI50 [10]: 1.67 µM
- TGI [10]: 8.75 µM
- CC50 [10]: 34.5 µM
- GI50 [11]: 0.53 µM
- TGI [11]: 15.6 µM
- CC50 [11]: > 100 µM

SMILES: CC(=O)C=CSc1ncnc2nc[nH]c12 [cis-AVTP, 6-(2-acetylvinylthio) purine]
- GI50 ([12]; Homo sapiens, SF-539, 48 h): 0.65 µM
- CC50 ([12]; Homo sapiens, SF-539, 48 h): 11.8 µM
- TGI ([12]; SF-539, CNS, 48 h): 2.86 µM
- GI50 ([13]; Homo sapiens, UO-31, 48 h): 0.6 µM
- CC50 ([13]; Homo sapiens, UO-31, 48 h): 4.48 µM
- TGI ([13]; UO-31, Renal, 48 h): 1.85 µM
- GI50 ([14]; Homo sapiens, 48 h): 0.2 µM
- CC50 ([14]; Homo sapiens, 48 h, read-out: LC50): > 100 µM
- TGI ([14]; Leukemia, 48 h): 2.17 µM
- GI50 ([15]; Homo sapiens): 1.48 µM
- CC50 ([15]; Homo sapiens, read-out: LC50 (the source's name)): 27.8 µM
- TGI [15]: 4.58 µM
- TGI ([16]; CAKI-1, Renal, 48 h): 0.55 µM
- GI50 ([16]; Homo sapiens, CAKI-1, 48 h): 0.11 µM
- CC50 ([16]; Homo sapiens, CAKI-1, 48 h): 2.85 µM
- TGI ([17]; COLO 205, Colon, 48 h): 1.70 µM
- GI50 ([17]; Homo sapiens, COLO 205, 48 h): 0.46 µM
- CC50 ([17]; Homo sapiens, COLO 205, 48 h): 4.74 µM
- TGI ([18]; BT-549, Breast, 48 h): 3.48 µM
- GI50 ([18]; Homo sapiens, BT-549, 48 h): 1.24 µM
- CC50 ([18]; Homo sapiens, BT-549, 48 h): 9.78 µM
- GI50 ([19]; Homo sapiens, SK-MEL-5, 48 h): 1.3 µM
- CC50 ([19]; Homo sapiens, SK-MEL-5, 48 h): 8.07 µM
- TGI ([19]; SK-MEL-5, Melanoma, 48 h): 3.24 µM
- GI50 ([20]; Homo sapiens, KM12, 48 h): 3.35 µM
- CC50 ([20]; Homo sapiens, KM12, 48 h): > 100 µM
- TGI ([20]; KM12, Colon, 48 h): 27.2 µM
- GI50 ([21]; Homo sapiens, SNB-75, 48 h): 4.19 µM
- CC50 ([21]; Homo sapiens, SNB-75, 48 h): 49.1 µM
- TGI ([21]; SNB-75, CNS, 48 h): 18.6 µM
- GI50 ([22]; Homo sapiens, SF-295, 48 h): 0.56 µM
- CC50 ([22]; Homo sapiens, SF-295, 48 h): 57.8 µM
- TGI ([22]; SF-295, CNS, 48 h): 11.2 µM
- TGI ([23]; Leukemia, 48 h): 4.95 µM
- GI50 ([24]; Homo sapiens, M14, 48 h): 0.07 µM
- CC50 ([24]; Homo sapiens, M14, 48 h): 7.75 µM
- TGI ([24]; M14, Melanoma, 48 h): 1.89 µM

SMILES: CC(=O)C=CSc1nc(N)nc2nc[nH]c12 [trans-AVTG, 6-(2-acetylvinylthio) guanine]
- GI50 ([12]; SF-539, CNS, 48 h): 0.81 µM
- TGI ([12]; SF-539, CNS, 48 h): 16.3 µM
- CC50 ([12]; SF-539, CNS, 48 h): > 100 µM
- GI50 ([13]; UO-31, Renal, 48 h): 0.62 µM
- TGI ([13]; UO-31, Renal, 48 h): 11.9 µM
- CC50 ([13]; UO-31, Renal, 48 h): 39.1 µM
- GI50 ([14]; Leukemia, 48 h): 0.14 µM
- TGI ([14]; Leukemia, 48 h): 1.83 µM
- CC50 ([14]; read-out: LC50, Leukemia, 48 h): 54.8 µM
- GI50 [15]: 3.05 µM
- TGI [15]: 16.3 µM
- GI50 ([16]; CAKI-1, Renal, 48 h): 0.16 µM
- TGI ([16]; CAKI-1, Renal, 48 h): 0.51 µM
- CC50 ([16]; CAKI-1, Renal, 48 h): 13.7 µM
- GI50 ([17]; COLO 205, Colon, 48 h): 1.87 µM
- TGI ([17]; COLO 205, Colon, 48 h): 3.98 µM
- CC50 ([17]; COLO 205, Colon, 48 h): 8.43 µM
- GI50 ([18]; BT-549, Breast, 48 h): 0.39 µM
- TGI ([18]; BT-549, Breast, 48 h): 5.75 µM
- CC50 ([18]; BT-549, Breast, 48 h): 43.1 µM
- GI50 ([19]; SK-MEL-5, Melanoma, 48 h): 1.68 µM
- TGI ([19]; SK-MEL-5, Melanoma, 48 h): 8.10 µM
- CC50 ([19]; SK-MEL-5, Melanoma, 48 h): 41.7 µM
- GI50 ([20]; KM12, Colon, 48 h): 2.71 µM
- TGI ([20]; KM12, Colon, 48 h): 13.0 µM
- CC50 ([20]; KM12, Colon, 48 h): 64.8 µM
- GI50 ([21]; SNB-75, CNS, 48 h): 9.17 µM
- TGI ([21]; SNB-75, CNS, 48 h): >100 µM
- CC50 ([21]; SNB-75, CNS, 48 h): > 100 µM
- GI50 ([22]; SF-295, CNS, 48 h): 0.43 µM
- TGI ([22]; SF-295, CNS, 48 h): 0.92 µM
- CC50 ([22]; SF-295, CNS, 48 h): 82.9 µM
- GI50 ([23]; Leukemia, 48 h): 3.77 µM
- TGI ([23]; Leukemia, 48 h): 16.6 µM
- CC50 ([23]; read-out: LC50, Leukemia, 48 h): > 100 µM
- GI50 ([24]; M14, Melanoma, 48 h): 0.45 µM
- TGI ([24]; M14, Melanoma, 48 h): 12.0 µM
- CC50 ([24]; M14, Melanoma, 48 h): 53.5 µM
